Laboratory results taken from ChEMBL document CHEMBL1221220, “Transport and signaling via the amino acid binding site of the yeast Gap1 amino acid transceptor” (Nat Chem Biol, 2009).
Positions count from the first letter of the chain named. The source made the active and inactive calls. The calls are words filed in the database; no cut-off is given here.

Columns and labels:
[1] = system: T1, General amino-acid permease GAP1 (Saccharomyces cerevisiae), P19145 [L383C]; assay: Activation of yeast Gap1 L383C mutant-mediated amino acid uptake at 10 mM
T1 sequence (whole entry): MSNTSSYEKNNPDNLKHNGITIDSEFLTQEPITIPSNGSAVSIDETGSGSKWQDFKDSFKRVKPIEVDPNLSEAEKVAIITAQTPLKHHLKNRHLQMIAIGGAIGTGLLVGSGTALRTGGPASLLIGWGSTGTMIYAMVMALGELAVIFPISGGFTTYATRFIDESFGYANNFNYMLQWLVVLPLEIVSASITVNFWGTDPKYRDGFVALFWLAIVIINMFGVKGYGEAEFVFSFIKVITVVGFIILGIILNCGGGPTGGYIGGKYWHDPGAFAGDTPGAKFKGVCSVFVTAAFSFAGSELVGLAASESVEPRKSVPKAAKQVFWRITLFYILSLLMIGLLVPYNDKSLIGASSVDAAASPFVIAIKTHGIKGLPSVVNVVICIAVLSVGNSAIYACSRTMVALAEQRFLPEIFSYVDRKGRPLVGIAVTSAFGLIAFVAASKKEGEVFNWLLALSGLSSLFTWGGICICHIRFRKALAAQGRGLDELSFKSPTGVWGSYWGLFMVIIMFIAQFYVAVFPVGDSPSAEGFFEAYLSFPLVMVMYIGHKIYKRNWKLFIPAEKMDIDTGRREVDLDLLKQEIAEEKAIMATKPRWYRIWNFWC

[2] = system: T2, General amino-acid permease GAP1 (Saccharomyces cerevisiae), P19145 [R399C]; assay: Activation of yeast Gap1 R399C mutant-mediated amino acid uptake at 10 mM
T2 sequence (whole entry): T1 sequence (whole entry) with C383L, R399C

[3] = system: T3, General amino-acid permease GAP1 (Saccharomyces cerevisiae), P19145 [L387C]; assay: Induction of yeast Gap1 L387C mutant-mediated trehalose activation at 10 mM
T3 sequence (whole entry): T1 sequence (whole entry) with C383L, L387C

[4] = system: General amino-acid permease GAP1 (Saccharomyces cerevisiae), P19145 [S388C]; assay: Induction of yeast Gap1 S388C mutant-mediated amino acid uptake at 2 mM in presence of 10 mM MTSEA treated before compound addition
[5] = system: T4, General amino-acid permease GAP1 (Saccharomyces cerevisiae), P19145 [G390C]; assay: Induction of yeast Gap1 G390C mutant-mediated amino acid uptake at 2 mM in presence of 10 mM MTSEA treated before compound addition
T4 sequence (whole entry): T1 sequence (whole entry) with C383L, G390C

[6] = system: T2, General amino-acid permease GAP1 (Saccharomyces cerevisiae), P19145 [R399C]; assay: Induction of yeast Gap1 R399C mutant-mediated amino acid uptake at 2 mM in presence of 10 mM MTSEA treated before compound addition

General amino-acid permease GAP1 (Saccharomyces cerevisiae), P19145 [S388C], sequence (P19145 whole entry S388C): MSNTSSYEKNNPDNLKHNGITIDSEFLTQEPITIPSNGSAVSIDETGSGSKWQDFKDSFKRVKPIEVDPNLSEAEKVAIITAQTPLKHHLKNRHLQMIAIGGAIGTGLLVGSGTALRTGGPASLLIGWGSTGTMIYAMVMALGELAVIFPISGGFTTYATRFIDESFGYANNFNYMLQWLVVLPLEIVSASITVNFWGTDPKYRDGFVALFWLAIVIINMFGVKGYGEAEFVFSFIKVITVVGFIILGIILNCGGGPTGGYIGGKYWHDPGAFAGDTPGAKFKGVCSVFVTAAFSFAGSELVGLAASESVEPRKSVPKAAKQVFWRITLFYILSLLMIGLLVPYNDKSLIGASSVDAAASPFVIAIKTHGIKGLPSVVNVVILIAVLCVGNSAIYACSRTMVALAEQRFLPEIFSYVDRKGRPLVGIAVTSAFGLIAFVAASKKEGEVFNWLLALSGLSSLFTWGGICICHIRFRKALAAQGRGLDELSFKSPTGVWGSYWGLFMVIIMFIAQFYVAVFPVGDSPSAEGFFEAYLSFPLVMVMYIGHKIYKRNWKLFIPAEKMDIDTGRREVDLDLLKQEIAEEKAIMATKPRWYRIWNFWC

- Activity [1]: inactive
- Activity [2]: inactive
- Activity [3]: inactive
- inhibition [4]: inactive
- Activity [5]: Active
- Activity [6]: Active
Structure (SMILES): NC(=O)NCCC[C@H](N)C(=O)O
